# Results taken from paper PMC6106931 (Alzheimer's Research & Therapy, 2018).
# Like-named read-outs stand apart in the source and are kept apart here.
# Tests used:
# [1] = design: method as in PMID 29067308; details: ALZ1002 Study; CV = 19%; cited from earlier work
# [2] = Cognitive evaluations (CANTAB Elect, RBANS, CDR-SB, MMSE), Study ALZ1005; format: in vivo, human; details: Caucasian early AD
# Protocol: When multiple assessments were performed at the same visit by independent raters, the sequential order of testing was RBANS first followed by CDR, MMSE, and CANTAB Elect, and if raters for RBANS and CDR were the same, then CDR was performed prior to RBANS.
# The CDR assessed three domains of cognition (memory, orientation, judgment/problem solving) and three domains of function (community affairs, home/hobbies, personal care) using structured interviews of both the patient and a companion/informant by a trained rater and scored using a standard methodology. CDR global score for the six domains range from 0 to 3 with 0 indicating no dementia and 3 indicating severe dementia. It can be summed to obtain CDR Sum of Boxes (CDR-SB) with scores ranging from 0 to 18. CDR and CDR-Japanese version global score has been used in AD trials as a global measure of disease progression.
# RBANS battery includes 12 subsets that measure 5 indices; the Digit Span and Coding subtests measure Attention, the Picture Naming and Semantic Fluency subtests measure Language, the Figure Copy and Line Orientation subtests measure Visuospatial/Construction, List Learning and Store Memory subtests measure Immediate Memory, and List Recall, List Recognition, Store Memory and Figure Recall measure Delayed Memory. RBANS has been used in multinational AD clinical trials.
# The CANTAB test battery consists of paired associated learning (PAL), reaction time (RTI) and spatial working memory (SWM). Performance in this test battery is associated with pathologic Aβ and tau levels and enables identification of individuals with memory impairment who are likely to develop AD and those with questionable dementia. Scores have a sensitivity of 0.83 and a specificity of 0.82 when differentiating individuals with MCI from healthy older adults. The PAL test assesses visuospatial episodic memory and the outcome measure is the adjusted number of errors committed at the 6-pattern stage. The test-retest reliability for PAL is 0.75 in MCI and 0.85 in AD. The RTI test assesses psychomotor processing speed. […] The test-retest reliability is 0.68 in MCI and 0.72 in AD. The SWM test assesses working memory and executive function. The outcome measure is the number errors made during performing of the task. The test-retest reliability is 0.55 in MCI and 0.68 in AD.
# MMSE rates subjects on orientation, registration, attention, calculation, recall and language. The maximum score is 30, and lower the score the greater the impairment.
# [3] = Plasma and CSF pharmacokinetics, noncompartmental analysis, Study ALZ1008; format: in vivo, human; details: for Kp at 28 day: CSF / free plasma, observed plasma concentration, free fraction 6%, read-out: Ratio C28d (CSF)/free plasma, Mean (SD); for concentration at 28 day: CSF, read-out: C28d, CSF concentration at Day 28, Mean (SD); for AUC: read-out: Plasma AUCτ, Day 28, Mean (SD)
# Protocol: Total apparent clearance for day 28 was calculated as dose/AUCτ.
# The lower limit of quantification (LLOQ) was 1 ng/ml.
# [4] = Japanese preclinical AD, 10 mg q.d.
# [5] = Japanese preclinical AD, 50 mg q.d.
structure (smiles),measurement,setting,value
C[C@@]1(c2cc(NC(=O)c3ccc(C#N)cn3)ccc2F)C=CSC(N)=N1 [atabecestat],"oral clearance (CL/F), model-based estimate",[1],10.5 L/h
same,"CDR-SB Total Score, change from baseline at day 28, Diff. of LS Means (SE) vs placebo",[2]; 10 mg,^-0.07 (0.305)
same,"CDR-SB Total Score, change from baseline at day 28, LS Mean",[2]; 10 mg,^-0.04
same,"CDR-SB Total Score, change from baseline at day 28, Mean (SD)",[2]; 10 mg,^-0.04 (0.660)
same,"MMSE Total Score, change from baseline at day 28, Diff. of LS Means (SE) vs placebo",[2]; 10 mg,^-1.33 (0.906)
same,"MMSE Total Score, change from baseline at day 28, LS Mean",[2]; 10 mg,^-0.76
same,"MMSE Total Score, change from baseline at day 28, Mean (SD)",[2]; 10 mg,^-0.40 (2.971)
same,"PAL Total Errors 6 Shapes Adjusted, change from baseline at day 28, Diff. of LS Means (SE) vs placebo",[2]; 10 mg,^-1.14 (2.086)
same,"PAL Total Errors 6 Shapes Adjusted, change from baseline at day 28, LS Mean",[2]; 10 mg,^0.87
same,"RBANS Total Scale, change from baseline at day 28, Diff. of LS Means (SE) vs placebo",[2]; 10 mg,^-4.39 (2.762)
same,"RBANS Total Scale, change from baseline at day 28, LS Mean",[2]; 10 mg,^0.07
same,"RBANS Total Scale, change from baseline at day 28, Mean (SD)",[2]; 10 mg,^0.33 (4.995)
same,"RTI Simple Reaction Time Mean, change from baseline at day 28, Diff. of LS Means (SE) vs placebo",[2]; 10 mg,^41.89 (23.130)
same,"RTI Simple Reaction Time Mean, change from baseline at day 28, LS Mean",[2]; 10 mg,^14.30
same,"SWM Between Errors 4-8 Boxes, change from baseline at day 28, Diff. of LS Means (SE) vs placebo",[2]; 10 mg,^0.06 (2.631)
same,"SWM Between Errors 4-8 Boxes, change from baseline at day 28, LS Mean",[2]; 10 mg,^1.48
same,"CDR-SB Total Score, change from baseline at day 28, Diff. of LS Means (SE) vs placebo",[2]; 50 mg,^0.51 (0.300)
same,"CDR-SB Total Score, change from baseline at day 28, LS Mean",[2]; 50 mg,^0.54
same,"CDR-SB Total Score, change from baseline at day 28, Mean (SD)",[2]; 50 mg,^0.54 (1.082)
same,"MMSE Total Score, change from baseline at day 28, Diff. of LS Means (SE) vs placebo",[2]; 50 mg,^-1.29 (0.880)
same,"MMSE Total Score, change from baseline at day 28, LS Mean",[2]; 50 mg,^-0.73
same,"MMSE Total Score, change from baseline at day 28, Mean (SD)",[2]; 50 mg,^-0.75 (3.317)
same,"PAL Total Errors 6 Shapes Adjusted, change from baseline at day 28, Diff. of LS Means (SE) vs placebo",[2]; 50 mg,^-1.44 (2.037)
same,"PAL Total Errors 6 Shapes Adjusted, change from baseline at day 28, LS Mean",[2]; 50 mg,^0.57
same,"RBANS Total Scale, change from baseline at day 28, Diff. of LS Means (SE) vs placebo",[2]; 50 mg,^-2.48 (2.705)
same,"RBANS Total Scale, change from baseline at day 28, LS Mean",[2]; 50 mg,^1.97
same,"RBANS Total Scale, change from baseline at day 28, Mean (SD)",[2]; 50 mg,^1.88 (10.392)
same,"RTI Simple Reaction Time Mean, change from baseline at day 28, Diff. of LS Means (SE) vs placebo",[2]; 50 mg,^33.19 (23.367)
same,"RTI Simple Reaction Time Mean, change from baseline at day 28, LS Mean",[2]; 50 mg,^5.60
same,"SWM Between Errors 4-8 Boxes, change from baseline at day 28, Diff. of LS Means (SE) vs placebo",[2]; 50 mg,^-0.48 (2.693)
same,"SWM Between Errors 4-8 Boxes, change from baseline at day 28, LS Mean",[2]; 50 mg,^0.93
same,"RBANS total scale, MMSE total and CDR Sum of Boxes change from baseline at day 28",[2]; any treatment group,no meaningful change
same,"CANTAB (PAL, RTI, SWM) changes from baseline at day 28",[2]; atabecestat treatment groups,No meaningful changes
same,day at or before which steady-state PK was reached,"[3]; Japanese participants, based on mean predose concentrations",≤ 8 days
same,"DN AUCτ (dose normalization to 5 mg), Day 28, Mean (SD)",[3]; [4],555 (158) ng.h/mL
same,"DN Cmax (dose normalization to 5 mg), Day 28, Mean (SD)",[3]; [4],53.6 (14.1) ng/mL
same,"Plasma Tmax, Day 28, Median (Range)",[3]; [4],2.0 (1.0-3.0) h
same,"DN AUCτ (dose normalization to 5 mg), Day 28, Mean (SD)",[3]; [5],473 (255) ng.h/mL
same,"DN Cmax (dose normalization to 5 mg), Day 28, Mean (SD)",[3]; [5],51.6 (26.7) ng/mL
same,"Plasma Cmax, Day 28, Mean (SD)",[3]; [5],516 (267) ng/mL
same,"Plasma Tmax, Day 28, Median (Range)",[3]; [5],1.5 (1.0-2.0) h
same,Kp at 28 day,"[3]; human, oral, 10 mg, Japanese preclinical AD, 10 mg q.d.",0.65
same,Kp at 28 day,"[3]; human, oral, 50 mg, Japanese preclinical AD, 50 mg q.d.",0.83
same,concentration at 28 day,"[3]; human, oral, Japanese preclinical AD, 10 mg q.d.",3.29 ng/mL
same,concentration at 28 day,"[3]; human, oral, Japanese preclinical AD, 50 mg q.d.",19.1 ng/mL
same,AUC,"[3]; human, plasma, oral, Japanese preclinical AD, 10 mg q.d.",1110 ng·h/mL
same,Cmax,"[3]; human, plasma, oral, Japanese preclinical AD, 10 mg q.d., read-out: Plasma Cmax, Day 28, Mean (SD)",107 ng/mL
same,AUC,"[3]; human, plasma, oral, Japanese preclinical AD, 50 mg q.d.",4730 ng·h/mL
